{"source": "paper PMC10671648", "about": "“Nucleation of α-Synuclein Amyloid Fibrils Induced by Cross-Interaction with β-Hairpin Peptides Derived from Immunoglobulin Light Chains” (International Journal of Molecular Sciences, 2023)", "key": {"β-wrapin AS10": {"system": "β-wrapin AS10", "conditions": "cited from earlier work"}, "αSyn(61–140)": {"system": "αSyn(61–140)", "test": "ThT aggregation assay of αSyn(61–140) under quiescent conditions", "assay_type": "biochemical", "conditions": "concentrations up to 50 µM", "procedure": "Figure 5 Modulation of aggregation of truncated αSyn variants by SMAhp (left) and LENhp (right) in ThT assay under quiescent conditions. Buffer, 30 mM Tris-HCl, pH 7.4, with indicated salt concentration. ThT time course and AFM images of (A,C) 25 µM αSyn(1–95) or (B,D) 25 µM αSyn(61–140) in the absence (gray) and presence of SMAhp (A,B) or LENhp (C,D). Frames around the AFM images correspond to the frames in the kinetics diagrams for indication of the sample; the same color coding for SMAhp and LENhp concentrations as in the kinetic diagrams was used for the AFM image frames.\nαSyn(1–95) and αSyn(61–140) were expressed from codon-optimized gene sequences in the pT7–7 vector in Escherichia coli BL21DE3, without N-terminal acetylation. Expression and purification were performed as for full-length αSyn, with the difference that, for αSyn(1–95), the anion exchange chromatography step was replaced by cation exchange chromatography using a 5 mL HiTrap SP FF column (Cytiva, Marlborough, MA, USA) and 10 mM sodium acetate buffer, pH 5, with elution in a NaCl gradient from 0 to 500 mM.\nAggregation kinetics were monitored in Greiner 96-well half-area, clear bottom, low-binding plates via ThT fluorescence in a BMG CLARIOstar plate reader. […] Plates were covered with sealing tape, placed in the plate reader, heated to 37 °C, and ThT fluorescence was read using bottom optics."}, "αSyn": {"target": "αSyn (Homo sapiens, UniProt P37840)", "conditions": "agitation conditions; ref [62]; cited from earlier work"}, "Net charge at neutral pH": {"test": "Net charge at neutral pH", "assay_type": "physicochemical"}}, "data": [{"compound": "IAPP: islet amyloid polypeptide, disease-related amyloid protein (KCNTATCATQRLANFLVHSSNNFGAILSSTNVGSNTY; Islet amyloid polypeptide; UniProt P10997 34-70, looked up)", "values": [{"measurement": "NMR pattern with AS10 (glycine region and downfield amide resonances)", "setting": "β-wrapin AS10; 1H-15N HSQC NMR of 15N-AS10, ref [57]", "value": "The same pattern has been observed before"}, {"measurement": "Kd", "setting": "β-wrapin AS10; read-out: KD for AS10, ref [57]", "value": 910, "unit": "nM"}, {"measurement": "affinity for AS10", "setting": "β-wrapin AS10; ref [56,57,58]", "value": "sub-micromolar affinity"}]}, {"compound": "NCCCNCCCCNCCCN", "note": "[spermine]", "values": [{"measurement": "effect of spermine on ThT fluorescence of αSyn(61–140)", "setting": "αSyn(61–140)", "value": "did not lead to any increase in ThT fluorescence"}, {"measurement": "effect on αSyn fibril formation under agitation", "setting": "αSyn", "value": "promote αSyn fibril formation"}, {"measurement": "net charge at neutral pH", "setting": "Net charge at neutral pH", "value": "+4"}]}]}
